This note sets out measurements from patent US11497752B2, “Compounds and uses thereof” (Foghorn Therapeutics Inc., priority 2018, dated 2022).

The target in one experiment is BRG-1 (Homo sapiens, UniProt P51532). As to the kind of experiment: ATPase catalytic activity of BRG-1 (ADP-Glo in vitro biochemical assay). The settings on record: for BRG1 Max % Inhibition: Table 6.
The target of another experiment is BRM (Homo sapiens, UniProt P51531). Kind of experiment: ATPase catalytic activity of BRM (ADP-Glo in vitro biochemical assay). The following applies: for BRM Max % Inhibition: Table 6.

Molecules are shown by their SMILES.

Sequence of BRG-1 (P51532 whole entry): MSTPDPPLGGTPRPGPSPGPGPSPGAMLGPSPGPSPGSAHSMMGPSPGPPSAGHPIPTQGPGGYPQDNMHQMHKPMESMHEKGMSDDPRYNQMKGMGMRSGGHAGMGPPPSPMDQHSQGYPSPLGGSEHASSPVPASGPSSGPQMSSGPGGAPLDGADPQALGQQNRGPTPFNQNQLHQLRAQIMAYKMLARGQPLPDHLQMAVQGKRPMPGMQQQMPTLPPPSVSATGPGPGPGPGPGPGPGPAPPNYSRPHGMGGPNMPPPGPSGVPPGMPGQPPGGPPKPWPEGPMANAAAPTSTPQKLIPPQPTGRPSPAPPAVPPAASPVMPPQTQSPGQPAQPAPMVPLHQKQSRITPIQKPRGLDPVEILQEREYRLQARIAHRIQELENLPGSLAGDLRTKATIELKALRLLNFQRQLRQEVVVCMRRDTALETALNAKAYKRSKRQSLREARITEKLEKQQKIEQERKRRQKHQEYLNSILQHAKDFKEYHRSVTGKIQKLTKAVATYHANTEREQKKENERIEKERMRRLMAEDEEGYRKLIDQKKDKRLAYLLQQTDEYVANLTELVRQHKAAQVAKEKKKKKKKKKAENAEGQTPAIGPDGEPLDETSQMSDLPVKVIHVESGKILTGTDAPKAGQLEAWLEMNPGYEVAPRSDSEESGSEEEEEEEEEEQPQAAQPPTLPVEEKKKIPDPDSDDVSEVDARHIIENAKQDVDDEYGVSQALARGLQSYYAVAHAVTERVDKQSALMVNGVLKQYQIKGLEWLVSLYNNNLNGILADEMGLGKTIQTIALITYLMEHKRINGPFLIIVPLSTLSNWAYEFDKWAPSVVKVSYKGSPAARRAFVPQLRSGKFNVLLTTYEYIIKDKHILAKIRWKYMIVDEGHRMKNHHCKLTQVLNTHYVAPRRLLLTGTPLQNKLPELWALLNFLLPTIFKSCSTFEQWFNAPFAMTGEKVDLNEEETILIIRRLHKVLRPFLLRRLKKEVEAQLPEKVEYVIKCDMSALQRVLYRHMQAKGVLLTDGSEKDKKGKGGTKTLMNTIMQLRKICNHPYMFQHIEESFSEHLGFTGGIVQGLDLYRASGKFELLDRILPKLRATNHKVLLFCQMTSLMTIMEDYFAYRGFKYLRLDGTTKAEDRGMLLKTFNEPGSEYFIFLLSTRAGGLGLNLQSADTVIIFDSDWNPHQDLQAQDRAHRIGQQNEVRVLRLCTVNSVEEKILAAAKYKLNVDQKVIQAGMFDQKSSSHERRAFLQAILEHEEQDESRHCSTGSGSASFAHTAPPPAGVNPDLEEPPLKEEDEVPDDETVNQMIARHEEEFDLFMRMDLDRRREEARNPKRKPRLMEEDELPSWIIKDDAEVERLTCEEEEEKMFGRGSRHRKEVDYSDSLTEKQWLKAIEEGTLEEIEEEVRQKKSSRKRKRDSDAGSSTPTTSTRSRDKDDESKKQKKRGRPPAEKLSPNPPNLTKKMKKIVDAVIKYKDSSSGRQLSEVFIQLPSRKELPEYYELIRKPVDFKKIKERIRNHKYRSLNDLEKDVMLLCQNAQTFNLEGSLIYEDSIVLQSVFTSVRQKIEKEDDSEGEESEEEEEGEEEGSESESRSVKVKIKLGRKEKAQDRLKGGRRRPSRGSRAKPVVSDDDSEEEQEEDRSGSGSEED
Sequence of BRM (P51531 whole entry): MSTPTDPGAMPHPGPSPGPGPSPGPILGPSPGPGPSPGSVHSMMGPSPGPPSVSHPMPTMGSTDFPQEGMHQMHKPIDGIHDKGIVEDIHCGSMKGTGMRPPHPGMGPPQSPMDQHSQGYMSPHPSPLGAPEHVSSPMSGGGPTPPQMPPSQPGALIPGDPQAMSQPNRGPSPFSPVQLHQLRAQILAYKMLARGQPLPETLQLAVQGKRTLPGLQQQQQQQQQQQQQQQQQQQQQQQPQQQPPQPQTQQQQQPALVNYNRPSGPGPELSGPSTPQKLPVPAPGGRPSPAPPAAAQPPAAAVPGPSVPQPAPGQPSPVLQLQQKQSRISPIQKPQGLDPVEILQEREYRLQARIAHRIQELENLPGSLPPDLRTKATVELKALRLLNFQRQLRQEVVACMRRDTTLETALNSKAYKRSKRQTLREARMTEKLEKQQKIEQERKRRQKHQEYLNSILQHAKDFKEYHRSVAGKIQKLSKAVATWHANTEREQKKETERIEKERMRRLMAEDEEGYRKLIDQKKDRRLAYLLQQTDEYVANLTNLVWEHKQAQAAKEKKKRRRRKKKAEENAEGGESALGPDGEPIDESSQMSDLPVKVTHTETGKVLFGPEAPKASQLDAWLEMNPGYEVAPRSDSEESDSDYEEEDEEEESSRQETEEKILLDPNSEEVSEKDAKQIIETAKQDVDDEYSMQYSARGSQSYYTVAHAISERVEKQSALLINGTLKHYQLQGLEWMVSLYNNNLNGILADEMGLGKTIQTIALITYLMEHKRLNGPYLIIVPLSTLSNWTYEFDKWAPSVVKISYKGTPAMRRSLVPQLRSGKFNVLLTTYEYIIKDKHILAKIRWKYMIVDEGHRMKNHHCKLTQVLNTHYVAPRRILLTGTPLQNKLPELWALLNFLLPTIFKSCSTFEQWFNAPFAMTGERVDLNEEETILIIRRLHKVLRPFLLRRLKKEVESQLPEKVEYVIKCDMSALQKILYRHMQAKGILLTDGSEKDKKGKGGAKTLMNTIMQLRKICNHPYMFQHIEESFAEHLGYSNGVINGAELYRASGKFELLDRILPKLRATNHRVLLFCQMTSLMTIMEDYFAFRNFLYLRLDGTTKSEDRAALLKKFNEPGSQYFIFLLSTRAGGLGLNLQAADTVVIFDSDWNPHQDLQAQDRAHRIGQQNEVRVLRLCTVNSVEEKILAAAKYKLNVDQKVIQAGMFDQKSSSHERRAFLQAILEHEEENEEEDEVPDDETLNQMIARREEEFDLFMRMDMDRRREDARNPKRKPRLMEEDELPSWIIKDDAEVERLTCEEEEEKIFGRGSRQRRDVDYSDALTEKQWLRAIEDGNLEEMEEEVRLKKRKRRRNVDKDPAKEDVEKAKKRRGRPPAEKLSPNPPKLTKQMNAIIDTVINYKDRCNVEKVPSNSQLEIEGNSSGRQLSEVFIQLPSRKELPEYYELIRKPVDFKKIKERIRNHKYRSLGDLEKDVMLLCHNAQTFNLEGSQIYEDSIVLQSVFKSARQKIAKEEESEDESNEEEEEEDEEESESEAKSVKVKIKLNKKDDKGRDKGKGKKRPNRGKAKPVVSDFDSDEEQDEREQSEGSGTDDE

As for `Cn1cnc2ccc(-c3csc(NC(=O)CNC(=O)c4cccc(S(C)(=O)=O)c4)n3)cc2c1=O` [Compound 93, N-(2-((4-(3-methyl-4-oxo-3,4-dihydroquinazolin-6-yl)thiazol-2-yl)amino)-2-oxoethyl)-3-(methylsulfonyl)benzamide], on BRG-1, the IC50 was in the range of 0.1 to 1 µM and the “BRG1 Max % Inhibition” value is more than 90%. On BRM, the IC50 is 0.1 to 1 µM and the “BRM Max % Inhibition” value is on record as more than 90%.
For `CS(=O)(=O)NCc1cccc(-c2csc(NC(=O)CNC(=O)c3cccc(S(C)(=O)=O)c3)n2)c1` [Compound 94, N-(2-((4-(3-(methylsulfonamidomethyl)phenyl)thiazol-2-yl)amino)-2-oxoethyl)-3-(methylsulfonyl)benzamide], at BRG-1, the IC50 fell in the range of 1 to 10 µM and the “BRG1 Max % Inhibition” value was more than 90%. At BRM, the IC50 lay in the range of 0.1 to 1 µM and the “BRM Max % Inhibition” value is more than 95%.
Taken in the same sequence, the figures for `O=C(CNC(=O)c1ccc2c(c1)CCN2)Nc1nc(-c2cccc(-c3ccncc3)c2)cs1` [Compound 95, N-(2-oxo-2-((4-(3-(pyridin-4-yl)phenyl)thiazol-2-yl)amino)ethyl)indoline-5-carboxamide] were less than 0.1 µM, more than 95%, less than 0.1 µM and more than 95%.
For `O=C(CNC(=O)c1ccc2[nH]ncc2c1)Nc1nc(-c2cccc(-c3ccncc3)c2)cs1` [Compound 96, N-(2-oxo-2-((4-(3-(pyridin-4-yl)phenyl)thiazol-2-yl)amino)ethyl)-1H-indazole-5-carboxamide] the same measures were 1 to 10 µM, more than 70%, 0.1 to 1 µM and more than 70%.
On to `CSCC[C@H](NC(=O)c1ccccc1)C(=O)Nc1nc(-c2cccc(-c3ccncc3)c2)cs1` [Compound 97, (S)-N-(4-(methylthio)-1-oxo-1-((4-(3-(pyridin-4-yl)phenyl)thiazol-2-yl)amino)butan-2-yl)benzamide], for which, on BRG-1, the IC50 was in the range of 0.1 to 1 µM and the “BRG1 Max % Inhibition” value is reported as more than 70%. Also, at BRM, the IC50 is 0.1 to 1 µM and the “BRM Max % Inhibition” value is more than 70%.
As for `CS(=O)(=O)c1cccc(C(=O)NCC(=O)Nc2nc(-c3cccc(-c4nccs4)c3)cs2)c1` [Compound 98, 3-(methylsulfonyl)-N-(2-oxo-2-((4-(3-(thiazol-2-yl)phenyl)thiazol-2-yl)amino)ethyl)benzamide], at BRG-1, the concentration for half-maximal inhibition (IC50) lay within 0.1 to 1 µM and the “BRG1 Max % Inhibition” value is recorded as more than 70%. Further, on BRM, the IC50 fell in the range of 0.1 to 1 µM and the “BRM Max % Inhibition” value is recorded as more than 90%.
Consider `O=C(CNC(=O)c1ccc2c(c1)CCCN2)Nc1nc(-c2cccc(-c3ccncc3)c2)cs1` [Compound 99, N-(2-oxo-2-((4-(3-(pyridin-4-yl)phenyl)thiazol-2-yl)amino)ethyl)-1,2,3,4-tetrahydroquinoline-6-carboxamide], for which, at BRG-1, the IC50 was less than 0.1 µM and the “BRG1 Max % Inhibition” value is recorded as more than 95%. In addition, at BRM, the IC50 was less than 0.1 µM and the “BRM Max % Inhibition” value was more than 90%.
For the molecule `NCc1ccc(C(=O)NCC(=O)Nc2nc(-c3cccc(-c4ccncc4)c3)cs2)cc1` [Compound 100, 4-(aminomethyl)-N-(2-oxo-2-((4-(3-(pyridin-4-yl)phenyl)thiazol-2-yl)amino)ethyl)benzamide], at BRG-1, the IC50 lay within 1 to 10 µM and the “BRG1 Max % Inhibition” value is recorded as more than 80%. Further, at BRM, the IC50 fell in the range of 0.1 to 1 µM and the “BRM Max % Inhibition” value was more than 80%.
Consider `O=C(CNC(=O)c1ccc2cncn2c1)Nc1nc(-c2cccc(-c3ccncc3)c2)cs1` [Compound 101, N-(2-oxo-2-((4-(3-(pyridin-4-yl)phenyl)thiazol-2-yl)amino)ethyl)imidazo[1,5-a]pyridine-6-carboxamide], for which, at BRG-1, the half-inhibitory concentration (IC50) was 0.1 to 1 µM and the “BRG1 Max % Inhibition” value is reported as more than 95%. On BRM, the IC50 was 0.1 to 1 µM and the “BRM Max % Inhibition” value is more than 95%.
Turning to `O=C(CNC(=O)c1cnc2c(c1)CCCN2)Nc1nc(-c2cccc(-c3ccncc3)c2)cs1` [Compound 102, N-(2-oxo-2-((4-(3-(pyridin-4-yl)phenyl)thiazol-2-yl)amino)ethyl)-5,6,7,8-tetrahydro-1,8-naphthyridine-3-carboxamide], at BRG-1, the IC50 was in the range of 0.1 to 1 µM and the “BRG1 Max % Inhibition” value is on record as more than 80%. Besides, on BRM, the IC50 lay in the range of 0.1 to 1 µM and the “BRM Max % Inhibition” value is on record as more than 80%.
On to `O=C(CNC(=O)c1ccc(N2CC(O)C2)cc1)Nc1nc(-c2cccc(-c3ccncc3)c2)cs1` [Compound 103, 4-(3-hydroxyazetidin-1-yl)-N-(2-oxo-2-((4-(3-(pyridin-4-yl)\phenyl)thiazol-2-yl)amino)ethyl)benzamide], for which, on BRG-1, the IC50 was in the range of 1 to 10 µM and the “BRG1 Max % Inhibition” value is more than 80%. At BRM, the IC50 was 0.1 to 1 µM and the “BRM Max % Inhibition” value is on record as more than 70%.
Taken in the same sequence, the figures for `CS(=O)(=O)c1ccnc(C(=O)NCC(=O)Nc2nc(-c3cccc(-c4ccncc4)c3)cs2)c1` [Compound 104, 4-methylsulfonyl-N-[2-oxo-2-[[4-[3-(4-pyridyl)phenyl]thiazol-2-yl]amino]ethyl]pyridine-2-carboxamide] were less than 0.1 µM, more than 60%, less than 0.1 µM and more than 70%.
Regarding `O=C(CNC(=O)c1ccc2c(c1)CC(O)CN2)Nc1nc(-c2cccc(-c3ccncc3)c2)cs1` (centres unmarked) [Compound 105, 3-hydroxy-N-[2-oxo-2-[[4-[3-(4-pyridyl)phenyl]thiazol-2-yl]amino]ethyl]-1,2,3,4-tetrahydroquinoline-6-carboxamide], at BRG-1, the IC50 lay in the range of 0.1 to 1 µM and the “BRG1 Max % Inhibition” value is reported as more than 50%. Besides, at BRM, the IC50 fell in the range of 0.1 to 1 µM and the “BRM Max % Inhibition” value is more than 80%.
Take `CSCC[C@H](NC(=O)c1ccc(N)cc1)C(=O)Nc1nc(-c2ccc(C#N)cc2)cs1` [Compound 107, (S)-4-amino-N-(1-((4-(4-cyanophenyl)thiazol-2-yl)amino)-4-(methylthio)-1-oxobutan-2-yl)benzamide]: at BRG-1, the IC50 is 1 to 10 µM and the “BRG1 Max % Inhibition” value is listed as more than 95%. For the same molecule, on BRM, the IC50 fell in the range of 0.1 to 1 µM and the “BRM Max % Inhibition” value is more than 95%.
Take `Nc1ccc(C(=O)NCC(=O)Nc2nc(-c3ccc4c(c3)OCCO4)cs2)cc1` [Compound 109, 4-amino-N-(2-((4-(2,3-dihydrobenzo[b][1,4]dioxin-6-yl)thiazol-2-yl)amino)-2-oxoethyl)benzamide]: on BRG-1, the half-maximal inhibitory concentration (IC50) was in the range of 0.1 to 1 µM and the “BRG1 Max % Inhibition” value was more than 90%. For the same molecule, at BRM, the IC50 was in the range of 0.1 to 1 µM and the “BRM Max % Inhibition” value was more than 90%.
With `COC(=O)N1CCC=C(c2csc(NC(=O)CNC(=O)c3ccc(N)cc3)n2)C1` [Compound 110, methyl 3-(2-(2-(4-aminobenzamido)acetamido)thiazol-4-yl)-5,6-dihydropyridine-1(2H)-carboxylate], at BRG-1, the IC50 fell in the range of 1 to 10 µM and the “BRG1 Max % Inhibition” value is on record as more than 80%. On BRM, the half-maximal inhibitory concentration (IC50) fell in the range of 0.1 to 1 µM and the “BRM Max % Inhibition” value is on record as more than 80%.
For the molecule `Nc1ccc(C(=O)NCC(=O)Nc2nc(-c3ccc4c(c3)CCO4)cs2)cc1` [Compound 111, 4-amino-N-(2-((4-(2,3-dihydrobenzofuran-5-yl)thiazol-2-yl)amino)-2-oxoethyl)benzamide], at BRG-1, the IC50 is 0.1 to 1 µM and the “BRG1 Max % Inhibition” value is listed as more than 90%. Moreover, on BRM, the IC50 is 0.1 to 1 µM and the “BRM Max % Inhibition” value is more than 90%.
